For one data set, the target named is T1, xanthine oxidase (Bos taurus, UniProt P80457).
T1 construct: purchased CALBIOCHEM 682151
The data set is described as follows: xanthine oxidase inhibition in vitro (UV-spectrophotometric uric acid formation at 290 nm from hypoxanthine). The format is biochemical. The following applies: for Inhibition (%) of xanthine oxidase: 6 minutes, ambient temperature. The procedure:
In the human in vivo metabolism the xanthine oxidase decomposes xanthine and hypoxanthine, respectively, to yield uric acid. This decomposition reaction can be perfectly simulated in vitro. For this purpose buffered solutions of (a) hypoxanthine, (b) xanthine oxidase and (c) the test substance are prepared. Solution (a) and (c) are mixed and filled into the cuvette of a UV-spectrophotometer. Solution (b) is then added into the cuvette. The UV-spectrophotometer is adjusted to 290 nm, i.e. to one of the main absorption lines of uric acid. Registration of the intensity of the 290 nm line is commenced immediately upon adding solution (b), i.e., upon adding the xanthine oxidase solution. The measurement is continued for exactly 6 minutes. For each test substance a certain number of measurements is carried out at varying concentrations of the test substance. The registered intensity values obtained after a certain time, here after 6 minutes, are compared to a standard registration containing as a solution (c) a blank buffer solution.
For the present measurements the UV-spectrophotometer used is a ZEISS PM Q II.
Solution (a) is 1 ml hypoxanthine puriss (FLUKA No. 56700) dissolved in a concentration of 1.5×10^-4 moles/liter in a 0.067 molar phosphate buffer solution having a pH of 7.4.
Solution (b) is 1 ml xanthine oxidase (CALBIOCHEM No. 682151) having a specific activity of 2.65 I.U./ml at 30° C., and is diluted in a ratio of 1:200 in the same phosphate buffer as used in solution (a).
Solution (c) is 1 ml of blank phosphate buffer for controls (standards) and a solution of the test substance dissolved in said phosphate buffer in varying concentrations, respectively.
The spectrophotometric measurements are carried out at ambient temperature.

The conditions of data set [1]: cited from earlier work.

“And” between values parts separate entries of the source, which are not always exact repeats. Equal entries are not always repeated. Where two headings read alike, the source gives them in different places.

T1 sequence (P80457 whole entry): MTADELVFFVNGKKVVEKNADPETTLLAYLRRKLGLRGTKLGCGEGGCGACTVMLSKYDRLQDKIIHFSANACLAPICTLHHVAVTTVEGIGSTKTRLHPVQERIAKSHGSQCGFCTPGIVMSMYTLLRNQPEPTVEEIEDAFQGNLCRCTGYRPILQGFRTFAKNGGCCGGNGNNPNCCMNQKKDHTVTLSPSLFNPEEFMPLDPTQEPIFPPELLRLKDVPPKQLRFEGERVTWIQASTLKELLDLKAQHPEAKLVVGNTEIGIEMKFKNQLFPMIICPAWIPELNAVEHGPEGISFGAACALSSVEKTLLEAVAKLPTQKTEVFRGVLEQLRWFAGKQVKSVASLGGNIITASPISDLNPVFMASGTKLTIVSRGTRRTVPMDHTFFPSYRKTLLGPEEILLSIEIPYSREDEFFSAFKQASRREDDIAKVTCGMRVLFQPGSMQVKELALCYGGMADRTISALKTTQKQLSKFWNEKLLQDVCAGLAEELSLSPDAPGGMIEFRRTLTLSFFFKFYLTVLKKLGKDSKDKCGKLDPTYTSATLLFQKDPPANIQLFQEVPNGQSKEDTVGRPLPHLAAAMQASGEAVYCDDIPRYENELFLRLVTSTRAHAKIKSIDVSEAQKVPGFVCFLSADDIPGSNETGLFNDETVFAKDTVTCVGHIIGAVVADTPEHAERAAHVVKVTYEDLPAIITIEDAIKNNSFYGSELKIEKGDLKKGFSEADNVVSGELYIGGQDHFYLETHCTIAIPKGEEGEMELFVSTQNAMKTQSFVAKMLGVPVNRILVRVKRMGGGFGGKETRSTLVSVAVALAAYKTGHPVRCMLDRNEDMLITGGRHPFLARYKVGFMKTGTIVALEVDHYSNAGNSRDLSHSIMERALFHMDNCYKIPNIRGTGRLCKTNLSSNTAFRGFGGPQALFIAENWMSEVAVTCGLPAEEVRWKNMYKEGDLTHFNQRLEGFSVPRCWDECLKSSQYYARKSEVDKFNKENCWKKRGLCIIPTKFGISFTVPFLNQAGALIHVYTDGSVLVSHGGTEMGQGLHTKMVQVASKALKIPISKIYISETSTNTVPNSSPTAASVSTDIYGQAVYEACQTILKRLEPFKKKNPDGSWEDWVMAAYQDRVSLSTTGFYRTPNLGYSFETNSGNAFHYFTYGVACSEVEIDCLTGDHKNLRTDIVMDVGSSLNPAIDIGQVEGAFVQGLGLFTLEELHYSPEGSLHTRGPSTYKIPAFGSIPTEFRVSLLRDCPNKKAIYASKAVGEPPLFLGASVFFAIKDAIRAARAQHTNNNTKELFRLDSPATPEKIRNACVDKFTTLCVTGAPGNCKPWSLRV

The term IC50 denotes the point on the concentration scale where inhibition reaches its midpoint. High values mean lower potency, low ones higher potency. Consider `CCCC1C(=O)N2C(N(C)C)=Nc3ccc(C)cc3N2C1=O` (stereo not shown) [azapropazone, 3-dimethylamino-7-methyl-1,2-(n-propylmalonyl)-1,2-dihydro-1,2,4-benzotriazine dihydrate], for which the “Inhibition (%) of xanthine oxidase” value on xanthine oxidase (1.25 × 10^-5 moles/liter azapropazone, pH 7.4) worked out at 20%; on xanthine oxidase (2.50 × 10^-5 moles/liter azapropazone, pH 7.4) it was 35%; on xanthine oxidase (5.00 × 10^-5 moles/liter azapropazone, pH 7.4), 55%. In addition, the IC50 at xanthine oxidase (50% inhibition concentration (xanthine oxidase), IC50 expressed in μg/ml) is 44.9 µM; against xanthine oxidase (50% inhibitive concentration IC50 (xanthine oxidase), interpolated from inhibition values, hypoxanthine substrate, pH 7.4), 40 µM. Moreover, the plasma level in data set [1] (1000 mg/d azapropazone orally in one single portion) is 80.8 µg/mL.

Regarding `Oc1ncnc2[nH]ncc12` [allopurinol], the plasma level in data set [1] (300 mg/d allopurinol orally in one single portion) is 2 µg/mL and 2.0 µg/mL.

(Values after patent publication US4305942A, “Xanthine oxidase inhibitor and therapeutic treatment using same” (Siegfried Aktiengesellschaft, priority 1979, dated 1981).)
